{
  "source": "patent US6262086A",
  "about": "“Pharmaceutical unit dosage form” (priority 2000, dated 2001)",
  "experiment": "Solubility assessment as a function of HPβCD concentration",
  "type": "physicochemical",
  "method": "Solubility studies were performed by the addition of a known mass of 5(6)-methoxy-2-[[(4-methoxy-3,5-dimethyl-2-pyridinyl)-methyl]sulfinyl]-1H- benzimidazole and/or HPβCD to a given volume of solvent system. Solubilities were determined by observation, as the maximum concentration at which 5(6)-methoxy-2-[[(4-methoxy-3,5-dimethyl-2-pyridinyl)-methyl]sulfinyl]-1H- benzimidazole completely dissolved. Additionally, concentrations of 5(6)-methoxy-2-[[(4-methoxy-3,5-dimethyl-2-pyridinyl)-methyl]sulfinyl]-1H- benzimidazole and HPβCD at set molar ratios were solubilized in systems of high pH (adjusted as high as 12.2, with 1N NaOH), the pH was adjusted (using 2N HCl) in a stepwise downward manner until precipitation occurred.\nThe solubility of 5(6)-methoxy-2-[[(4-methoxy-3,5-dimethyl-2-pyridinyl)-methyl]sulfinyl]-1H- benzimidazole was assessed as a function of HPβCD concentration in water.\nThe procedure according to Example 86 was repeated except that water with a borate buffer (pH of 8) was employed.\nThe procedure according to Example 86 was repeated except that water with a phosphate buffer (pH of 11) was employed.",
  "note": "Values joined by “and” are separate entries in the source; they are usually repeats but may differ in a detail not shown here. Identical values can stand only once.",
  "data": [
    {"compound": "COc1ccc2[nH]c([S+]([O-])Cc3ncc(C)c(OC)c3C)nc2c1", "note": "(stereo not drawn) [5(6)-methoxy-2-[[(4-methoxy-3,5-dimethyl-2-pyridinyl)-methyl]sulfinyl]-1H-benzimidazole]", "values": [
      {"measurement": "dependence of solubility on HPβCD concentration", "setting": "water with a borate buffer (pH of 8)", "value": "increase linearly as a function of HPβCD concentration"},
      {"measurement": "dependence of solubility on HPβCD concentration", "setting": "water with a phosphate buffer (pH of 11)", "value": "increase linearly as a function of HPβCD concentration"},
      {"measurement": "solubility", "setting": "water, read-out: aqueous solubility in water", "value": "~300 µg/mL and ~900 µM"}
    ]}
  ]
}
